Where a name gives a salt, the structure may show the parent alone. Read-outs that look alike come from different tables or passages of the source.
Key:
human 5-HT6 receptor = biological target: T1, human 5-HT6 receptor (Homo sapiens, UniProt P50406); experiment: 5-HT6 binding assay ([3H]-LSD, SPA, membranes of transfected HEK293 cells)
T1 construct: expressed in transfected cells; host or cells: HEK-293 cells under G-418 selection; membranes were prepared from them

Ob/ob mice = experiment: In vivo assay of reduction of food intake; design: species or system mouse; conditions: infusion 50 mg/kg/d, measured at steady state
Experimental: (c) In Vivo Assay of Reduction of Food Intake
Obese (ob/ob) mouse is selected as the primary animal model for screening as this mutant mouse consumes high amounts of food resulting in a high signal to noise ratio. To further substantiate and compare efficacy data, the effect of the compounds on food consumption is also studied in wild type (C57BL/6J) mice. The amount of food consumed during 15 hours of infusion of compounds is recorded.
Male mice (obese C57BL/6JBom-Lep^ob and lean wild-type C57B1/6JBom; Bomholtsgaard, Denmark) 8-9 weeks with an average body weight of 50 g (obese) and 25 g (lean) are used in all the studies. The animals are housed singly in cages at 23±1° C., 40-60% humidity and have free access to water and standard laboratory chow. The 12/12-h light/dark cycle is set to lights off at 5 p.m. The animals are conditioned for at least one week before start of study.
The test compounds are dissolved in solvents suitable for each specific compound such as cyclodextrin, cyclodextrin/methane sulfonic acid, polyethylene glycol/methane sulfonic acid, saline. Fresh solutions are made for each study. Doses of 30, 50 and 100 mg kg^−1day^−1 are used. The purity of the test compounds is of analytical grade.
The animals are weighed at the start of the study and randomized based on body weight. Alzet osmotic minipumps (Model 2001D; infusion rate 8 μl/h) are used and loaded essentially as recommended by the Alzet technical information manual (Alza Scientific Products, 1997; Theeuwes, F. and Yam, S. I. Ann. Biomed. Eng. 4(4). 343-353, 1976). Continuous subcutaneous infusion with 24 hours duration is used. […]
The weight of the food pellets are measured at 5 p.m. and at 8 p.m. for two days before (baseline) and one day after the implantation of the osmotic minipumps. […]
Food consumption for 15 hours is measured for the three consecutive days and the percentage of basal level values is derived for each animal from the day before and after treatment. The values are expressed as mean±SD and ±SEM from eight animals per dose group. […]

[1] = Plasma drug concentration at steady state in the food intake study; assay type: in vivo; conditions: mouse, subcutaneous, 50 mg/kg/day, Ob/ob mice, single administration 50 mg/kg/d, read-out: Css, u
Experimental: The animals are weighed at the start of the study and randomized based on body weight. Alzet osmotic minipumps (Model 2001D; infusion rate 8 μl/h) are used and loaded essentially as recommended by the Alzet technical information manual (Alza Scientific Products, 1997; Theeuwes, F. and Yam, S. I. Ann. Biomed. Eng. 4(4). 343-353, 1976). Continuous subcutaneous infusion with 24 hours duration is used. The minipumps are either filled with different concentrations of test compounds dissolved in vehicle or with only vehicle solution and maintained in vehicle pre-warmed to 37° C. (approx. 1 h). The minipumps are implanted subcutaneously in the neck/back region under short acting anesthesia (metofane/enflurane). This surgical procedure lasts approximately 5 min. It takes about 3 h to reach steady state delivery of the compound.
The weight of the food pellets are measured at 5 p.m. and at 8 p.m. for two days before (baseline) and one day after the implantation of the osmotic minipumps. The weigh-in is performed with a computer assisted Mettler Toledo PR 5002 balance. Occasional spillage is corrected for. At the end of the study the animals are killed by neck dislocation and trunk blood sampled for later analysis of plasma drug concentrations.
The plasma sample proteins are precipitated with methanol, centrifuged and the supernatant is transferred to HPLC vials and injected into the liquid chromatography/mass spectrometric system. The mass spectrometer is set for electrospray positive ion mode and Multiple Reaction Monitoring. A linear regression analysis of the standards forced through the origin is used to calculate the concentrations of the unknown samples.

[2] = In vitro binding at the human 5-HT6 receptor, [3H]-LSD as labeled ligand, read-out: Ki (nM) human 5-HT6

T1 sequence (P50406 whole entry): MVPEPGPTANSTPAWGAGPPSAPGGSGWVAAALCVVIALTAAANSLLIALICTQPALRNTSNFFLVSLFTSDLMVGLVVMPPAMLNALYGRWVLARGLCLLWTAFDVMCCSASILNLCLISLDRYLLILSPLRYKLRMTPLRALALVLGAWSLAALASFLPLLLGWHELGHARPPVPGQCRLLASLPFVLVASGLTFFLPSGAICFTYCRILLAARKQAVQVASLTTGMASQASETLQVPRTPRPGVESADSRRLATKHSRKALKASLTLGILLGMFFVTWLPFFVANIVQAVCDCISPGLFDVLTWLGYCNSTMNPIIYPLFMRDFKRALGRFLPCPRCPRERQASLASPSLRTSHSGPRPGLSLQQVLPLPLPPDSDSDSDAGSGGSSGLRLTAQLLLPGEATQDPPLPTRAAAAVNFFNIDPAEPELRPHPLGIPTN

Row | Ki (human 5-HT6 receptor; [2]) [nM] | concentration at 24 h [1] [nM] | SMILES | % FI reduction (Ob/ob mice) [%] | further results
1 | 4.5 |  | CN1CCN(c2nccc3sc(S(=O)(=O)Nc4ccccc4)cc23)CC1 [Example 43, 4-(4-Methylpiperazin-1-yl)-N-phenylthieno[3,2-c]pyridine-2-sulfonamide hydrochloride] |  | 
2 | 13 |  | O=S(=O)(NCCc1cccs1)c1cc2c(N3CCNCC3)nccc2s1 [Example 68, 4-Piperazin-1-yl-thieno[3,2-c]pyridine-2-sulfonic acid (2-thiophen-2-yl-ethyl)-amide hydrochloride] |  | 
3 | 32 |  | O=S(=O)(c1cc2c(N3CCCNCC3)nccc2s1)c1cccc2ccccc12 [Example 85, 4-(1,4-Diazepan-1-yl)-2-[1-naphthylsulfonyl)thieno[3,2-c]pyridine hydrochloride] |  | 
4 | 10.5 |  | Cc1ccc(C)c(S(=O)(=O)c2ccc3ccnc(N4CCNCC4)c3c2)c1 [Example 20, 7-(2,5-Dimethyl-benzenesulfonyl)-1-piperazin-1-yl-isoquinoline hydrochloride] |  | 

More lines, now with the values behind:

Row | SMILES | Ki (human 5-HT6 receptor; [2]) [nM] | concentration at 24 h [1] [nM] | % FI reduction (Ob/ob mice) [%] | further results
5 | Cl.O=S(=O)(Nc1ccc(O[C@@H]2CCNC2)c2ccccc12)c1ccc(Cl)cc1 [Example 40, 4-Chloro-N-{4-[(3R)-pyrrolidin-3-yloxy]-1-naphthyl}benzenesulfonamide hydrochloride] | 7.5 | 200 | 44 | 
6 | CC(C)(C)c1ccc(S(=O)(=O)c2ccc3nccc(N4CCNCC4)c3c2)cc1.Cl [Example 11, 6-[(4-tert-Butylphenyl)sulfonyl]-4-piperazin-1-ylquinoline hydrochloride] | 6.5 | 20 | 47.1 | 
7 | O=S(=O)(c1ccccc1)n1ccc2c(N3CCNCC3)nccc21 [Example 131, 1-(Phenylsulfonyl)-4-piperazin-1-yl-1H-pyrrolo[3,2-c]pyridine hydrochloride] |  |  |  | Ki (human 5-HT6 receptor): 5 nM
8 | CN1C[C@@H](NS(=O)(=O)N(C)C)C[C@@H]2c3cccc4c3c(cn4C)C[C@H]21 [mesulergide, reference compound] |  |  |  | Ki (human 5-HT6 receptor; 3 nM [3H] LSD, 5-HT: over all average against two different membrane preparations, read-out: Ki value, inhibition of [3H] LSD binding (reference compounds, rank order of potency)): 1970 nM
9 | Cl.O=S(=O)(c1ccccc1)c1ccc2nccc(N3CCNCC3)c2c1 [Example 1, 6-benzenesulfonyl-4-piperazin-1-yl-quinoline hydrochloride] | 10 | 440 | 12 | 
10 | NCCc1c[nH]c2ccc(O)cc12 [Example 5-HT, 5-hydroxytryptamine, reference compound] |  |  |  | Hill coefficient (human 5-HT6 receptor; inter assay variability over three experiments): 0.94 (SD 0.09)
